Legend:
tubulin = test: Tubulin polymerisation inhibitor (TPI) assay; assay type: biochemical; settings: concentration required to inhibit the extent of tubulin polymerisation by 50%
[1] = tested on: Activated human umbilical vein endothelial cells (HUVECs); test: Inhibition of proliferation of activated HUVEC cells; assay type: cell-based; settings: concentration required to inhibit proliferation by 50%, value falls within the range of concentrations given or >1000 nM

IC50 (tubulin) [µM]	Compound	IC50 ([1]; Homo sapiens, HUVEC) [µM]	IC50 [1] [µM]
> 40	COc1ccc(-c2oc3nc(OC)ccc3c2-c2cc(OC)c(OC)c(OC)c2)cc1 [Example 21, 6-methoxy-2-(4-methoxyphenyl)-3-(3,4,5-trimethoxyphenyl)furo[2,3-b]pyridine]		
~2	COc1ccc(-c2oc3nc(OC)ccc3c2C(=O)c2cc(OC)c(OC)c(OC)c2)cc1 [Example 20, 6-methoxy-2-(4-methoxyphenyl)-3-(3,4,5-trimethoxybenzoyl)furo[2,3-b]pyridine]	0.1 to 1	
	COc1ccc(-c2oc3[nH]c(=O)ncc3c2-c2cc(OC)c(OC)c(OC)c2)c(O)c1O [Example 8, 6-(2,3-Dihydroxy-4-methoxy-phenyl)-5-(3,4,5-trimethoxy-phenyl)-1H-furo[2,3-d]pyrimidin-2-one]	> 1	
	COc1ccc(-c2oc3[nH]c(=O)ccc3c2-c2cc(OC)c(OC)c(OC)c2)cc1 [Example 26, 2-(4-Methoxyphenyl)-3-(3,4,5-trimethoxyphenyl)furo[2,3-b]pyridin-6-one]	0.1 to 1	
> 40	COc1ccc(-c2oc3c(cnc(=O)n3C)c2C(=O)c2cc(OC)c(OC)c(OC)c2)cc1 [Example 15]		
	COc1ccc(-c2oc3nc(OC)ncc3c2C(=O)c2cc(OC)c(OC)c(OC)c2)cc1 [Example 27]	0.1 to 1	
< 4	COc1ccc(-c2oc3nc(OC)cnc3c2C(=O)c2cc(OC)c(OC)c(OC)c2)cc1 [Example 25, 3-methoxy-6-(4-methoxyphenyl)-7-(3,4,5-trimethoxybenzoyl)furo[2,3-b]pyrazine]	0.01 to 0.1	
	COc1ccc(-c2oc3[nH]c(=O)ncc3c2-c2cc(OC)c(OC)c(OC)c2)cc1O [Example 7, 6-(3-Hydroxy-4-methoxy-phenyl)-5-(3,4,5-trimethoxy-phenyl)-1H-furo[2,3-d]pyrimidinone]	0.01 to 0.1	
	COc1cc(-c2c(-c3ccco3)oc3[nH]c(=O)ncc23)cc(OC)c1OC [Example 3, 6-(2-furyl)-5-(3,4,5-trimethoxyphenyl)furo[2,3-d]pyrimidin-2(11)-one]	> 1	
	COc1cc(C(=O)c2c(-c3cnn(C)c3)oc3c(=O)c(OC)c[nH]c23)cc(OC)c1OC [Example 30, 6-Methoxy-2-(1-methyl-1H-pyrazol-4-yl)-3-(3,4,5-trimethoxybenzoyl)-4H-furo[3,2-b]pyridin-7-one]	> 1	
> 40	COc1ccc(-c2sc3nc(SC)ncc3c2C(=O)c2cc(OC)c(OC)c(OC)c2)cc1 [Example 18, 2-Thiomethoxy-6-(4-methoxyphenyl)-5-(3,4,5-trimethoxybenzoyl)-thiopheno [2,3-d]pyrimidine]		
> 40	COc1ccc(-c2oc3[nH]c(=O)ncc3c2C(=O)c2cc(OC)c(OC)c(OC)c2)cc1 [Example 13]		
< 4	COc1ccc(-c2oc3cc(OC)ncc3c2C(=O)c2cc(OC)c(OC)c(OC)c2)cc1 [Example 24, 6-methoxy-2-(4-methoxyphenyl)-3-(3,4,5-trimethoxybenzoyl)furo[3,2-c]pyridine]	0.1 to 1	
4 to 10	COc1ccc(-c2c(-c3cc(OC)c(OC)c(OC)c3)oc3[nH]c(=O)ncc23)cc1 [Example 2, 6-(2-(3,4,5-trimethoxyphenyl))-5-(4-methoxyphenyl)furo[2,3-d]pyrimidin-2(1H)-one]	0.1 to 1	
	6-(3-amino-4-methoxyphenyl)-5-(3-hydroxy-4,5-dimethoxyphenyl)furo[2,3-d]pyrimidin-2(1H)-one hydrochloride [Example 10]		> 1
	COc1cc(-c2c(-c3ccc4c(ccn4C)c3)oc3[nH]c(=O)ncc23)cc(OC)c1OC [Example 4, 6-(1-Methyl-1H-indol-5-yl)-5-(3,4,5-trimethoxy-phenyl)-1H-furo[2,3-d]pyrimidin-2-one]	0.001 to 0.01	
< 4	COc1ccc(-c2oc3cc(OC)cnc3c2C(=O)c2cc(OC)c(OC)c(OC)c2)cc1 [Example 22, 6-methoxy-2-(4-methoxyphenyl)-3-(3,4,5-trimethoxybenzoyl)furo [3,2-b]pyridine]	0.1 to 1	
	COc1ccc(-c2oc3[nH]c(=O)ncc3c2-c2cc(OC)c(OC)c(OC)c2)cn1 [Example 5, 6-(6-methoxypyridin-3-yl)-5-(3,4,5-trimethoxyphenyl)furo[2,3-d]pyrimidin-2(1H)-one]	0.1 to 1	
	COc1ccc(-c2oc3c(Br)c(OC)cnc3c2C(=O)c2cc(OC)c(OC)c(OC)c2)cc1 [Example 28, 7-Bromo-6-methoxy-2-(4-methoxyphenyl)-3-(3,4,5-trimethoxybenzoyl)-furo[3,2-b]pyridine]	0.1 to 1	
2	COc1ccc(-c2oc3[nH]c(=O)ncc3c2-c2cc(OC)c(OC)c(OC)c2)cc1 [Example 1]	0.01 to 0.1	
10 to 40	COc1ccc(-c2oc3nc(Cl)ncc3c2-c2cc(OC)c(OC)c(OC)c2)cc1 [Example 16, 2-Chloro-6-(4-methoxyphenyl)-5-(3,4,5-trimethoxy-phenyl)-furo[2,3-d]pyrimidine]		

Compound	IC50 (tubulin) [µM]	IC50 ([1]; Homo sapiens, HUVEC) [µM]	IC50 [1] [µM]
COc1ccc(-c2sc3nc(OC)ncc3c2C(=O)c2cc(OC)c(OC)c(OC)c2)cc1 [Example 19, 2-Methoxy-6-(4-methoxyphenyl)-5-(3,4,5-trimethoxybenzoyl)-thiopheno[2,3-d]pyrimidine]	> 40	> 1	
COc1ccc(-c2oc3cc(OC)cnc3c2-c2cc(OC)c(OC)c(OC)c2)cc1 [Example 23, 6-methoxy-2-(4-methoxyphenyl)-3-(3,4,5-trimethoxyphenyl)furo[3,2-b]pyridine]	~10	> 1	
COc1ccc(-c2oc3nc(OC)ncc3c2-c2cc(OC)c(OC)c(OC)c2)cc1 [Example 17, 2-Methoxy-6-(4-methoxyphenyl)-5-(3,4,5-trimethoxyphenyl)-furo[2,3-d]pyrimidine]	> 40		

Source: patent US8466163B2 (Bionomics Limited, priority 2006, dated 2013)
